The values that follow come from patent US10150793B2, “Antagonists of CB1 receptor” (INSERM (Institut National de la Santé et de la Recherche …, priority 2011, dated 2018).

Series [1] can be described thus: Diet induced obesity, body weight and body composition. The series is classed as in vivo, C57BL/6J mice. The method, then: 2-months old male C57BL/6J mice were ad libitum fed a 60% high-fat diet (HFD; Catalog #D12492, Research Diets, New Brunswick, N.J.) for 8 weeks and subsequently treated either with pegnenolone or vehicle. Homogeneous distribution of the animals in the 3 treatment groups was guaranteed by matching their body weight, fat mass and fasting glucose levels before the start of the pharmacological treatments.
Fat mass and lean mass were assessed in vivo using an EchoMRI analyzer (EchoMedical Systems, Houston, Tex.) before the mice were placed on the HFD, as well as immediately before and at the end of the chronic treatment with pregnegnolone or its vehicle.
In this example the inventors analyzed the ability of pregnenolone to inhibit the effects of CB1 activation in the context of obesity. The effects of pregnenolone on metabolic disorders were studied using the model of diet induced obesity (DIO) in mice. In this procedure animals are maintained on a high fat diet (60% of fat) which progressively induce obesity. After eight weeks on this diet which already induced overweight and excessive fat accumulation in these animals the treatment with pregnenolone was started for thirty days (once a day 2 mg/kg or 5 mg/kg, n=8).

The nature of series [2]: Brain steroid levels after pregnenolone injections. The series is classed as in vivo, C57B1/6 mice. To be noted: pregnenolone injections between 2 and 8 mg/kg. The method, then: Data are expressed as mean±SEM (n=7-8 per group). *=P<0.05, ***=P<0.001 compared to vehicle-treated animals (PREG 0 mg/kg).
In this example the inventors studied the effects of the doses of pregnenolone (between 2 and 8 mg/kg) that were able to inhibit the effects of CB1 activation in mice.

Series [3] in a line: Plasmatic levels of pregnenolone and allopregnanolone after subcutaneous injection or Alzet minipumps. The series is classed as in vivo, mice. How it is done: Micro-osmotic pumps (Alzet Osmotis Pumps, Charles River, France) with a pump rate of 0.15 μl/hr (model 2006) were filled with pregnenolone dissolved in PEG300 (85%) and ethanol (15%) at a concentration of 125 or 250 mg/ml (corresponding respectively to a daily dose of 12 or 24 mg/kg body weight) and implanted subcutaneously after light anesthesia. All pumps were primed by soaking them in saline at 37° C. for 60 h before implantation.
The effects of pregnenolone administration on plasmatic levels of pregnenolone were compared (n=5 per group) when pregnenolone was administered subcutaneously (6 mg/kg) or by Alzet micro-osmotic pumps (Alzet Osmotis Pumps, Charles River, France, model 2006) that simulate an extended release formulations of pregnenolone. Thus, these mini pump implanted subcutaneously provide a steady release of pregnenolone. Two pregneolone concentrations were used 0.6 mg/kg/hour and 1 mg/kg/hour (10 times and six times lower than the dose administered subcutaneously). […] The half life of pregnenolone administered subcutaneously was quite short (half an hour) and the increase in allopregnanolone was maintained over one hour (FIG. 20). […] Also pregnenolone levels remained in the range of effective therapeutic doses over two weeks.

Another series deals with AMPA receptors. Nature of the series: AMPAR-mediated mEPSC in nucleus accumbens principal neurons. The series is classed as cell-based, mouse. To be noted: pregnenolone 100 nM treated slices.
Series [4] concerns the target T1, CB1 receptor (Mus musculus, UniProt P47746). Nature of the series: THC inhibition of fEPSP in nucleus accumbens slices. The series is classed as cell-based, mice. The arrangement: from tissue; host or cells: acute brain slices, nucleus accumbens. To be noted: slices pre-incubated with pregnenolone 100 nM. How it is done:
Animals were deeply anesthetized with Isoflourane and transcardially perfused with a sucrose-based physiological solution at 4° C. (in mM: 23 NaHCO3, 70 Choline Cl, 75 Sucrose, 25 Glucose, 2.5 KCl, 1.25 NaH2PO4, 7 MgCl2 and 0.5 CaCl2). The brain was removed and sliced (250-300 μm) in the coronal plane using a vibratome (Campden Instruments, Loughborough, UK). During the slicing process, the brain was maintained in the sucrose-based solution. Immediately after cutting, slices were stored at 32° C. for 40 minutes in a low-calcium artificial cerebrospinal fluid (low-Ca^2+ ACSF) that contained (in mM): 23 NaHCO3, 120 NaCl, 11 Glucose, 2.5 KCl, 1.2 NaH2PO4, 2.4 MgCl2, 1.2 CaCl2. Slices were then stored in low-Ca^2+ ACSF at room temperature until recording.
For fEPSPs, extracellular glass recording and stimulating electrodes were filled with ACSF. Synaptic potentials were evoked by means of two electric stimuli (0.1-0.25 mA, 200 μsec duration) delivered at 20 Hz every 10 seconds. Stimulating electrode was placed at a distance>150 μm in the dorsomedial direction from the recoding electrode.
In order to test the effect of pregnenolone on a wider range of THC concentrations, we recorded fEPSP in NAc slices. Due to the possibility to achieved stable fEPSP measurements for several hours, this technique is ideally suited to perform dose-response curves and has previously been used to address CB1 receptor function (Robbe et al., 2001; Mato et al., 2004). Thus, AMPAR-mediated evoked fEPSP were recorded by electrically stimulating local axons.

Series [5] has as its target T1, CB1 receptor. Put plainly: Intravenous self-administration of the CB1 agonist WIN 55,212-2. The series is classed as in vivo, CD1 mice. Details: tissue Charles River Laboratories (France) (animals); host or cells: living mice, whole animal. The method, then:
The intravenous self-administration experiments where the animals learned to self-infuse WIN 55, 212-2 (WIN) were conducted in mouse operant chambers (Model ENV-307A-CT, Medical Associates, Georgia, Vt., USA) using procedures previously described (Mendizabal V, et al., Neuropsychopharmacology. 2006, 31:1957-66).
In order to analyse the effects of pregnenolone administration on the positive reinforcing effect of CB1 activation that are related to the ability of THC to induce addiction, the inventors used the intravenous self-administration model performed in accordance to protocols previously described (Soria et al., 2006; Mendizabal et al., 2006). Intravenous self-administration is considered the best behavioural model of addiction. In this model animals learn to produce an operant response, in our case pocking the nose in a hole, in order to obtain an intravenous infusion of the drug. […] In this schedule animals are required to produce an increasing number of responses (ratio) to obtain one drug infusion, the break-point being the last ratio completed and is considered a reliable measure of the motivation for the drug. On PR session the response requirement to earn an injection escalated according to the following series: 1-2-3-5-12-18-27-40-60-90-135-200-300-450-675-1000.

The mark [6] stands for this setting: pregnenolone 5 mg/kg, magnetic resonance.
[7] abbreviates: Alzet minipump at 0.6 mg/kg/hour.

T1 sequence (P47746 whole entry, the tested form may be a part): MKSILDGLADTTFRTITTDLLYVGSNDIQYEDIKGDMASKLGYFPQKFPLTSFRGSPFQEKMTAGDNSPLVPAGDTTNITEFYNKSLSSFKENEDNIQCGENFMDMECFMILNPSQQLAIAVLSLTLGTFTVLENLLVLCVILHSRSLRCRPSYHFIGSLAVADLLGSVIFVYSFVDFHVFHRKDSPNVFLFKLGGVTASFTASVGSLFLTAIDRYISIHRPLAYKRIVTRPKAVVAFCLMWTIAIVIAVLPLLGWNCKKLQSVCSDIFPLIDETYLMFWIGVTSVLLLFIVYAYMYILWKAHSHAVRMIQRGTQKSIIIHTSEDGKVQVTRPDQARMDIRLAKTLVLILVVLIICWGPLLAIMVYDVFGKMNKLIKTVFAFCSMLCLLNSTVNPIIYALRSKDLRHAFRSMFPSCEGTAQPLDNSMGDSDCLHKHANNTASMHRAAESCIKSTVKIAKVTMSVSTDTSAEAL

In the case of `CC(=O)[C@H]1CC[C@H]2[C@@H]3CC=C4C[C@@H](O)CC[C@]4(C)[C@H]3CC[C@]12C` [Pregnenolone, 5-Pregnen-3β-ol-20-one], the “effect on food intake in DIO model” value in series [1] (high fat diet, food intake over 24 hours) is recorded as “did not modify food intake”. Further, in series [1] (high fat diet, once a day 2 or 5 mg/kg for thirty days, effect after 15 days), the “effect on body weight” value is given as “decreased body weight”. In series [1] (setting [6]), the “effect on fat mass” value was “the increase in fat mass was suppressed” and the “effect on lean mass” value is “the decrease in lean mass was blunted”. In series [2], the “brain concentrations of downstream metabolites (epiallopregnanolone, allopregnanolone)” value is given as “did not modify the concentrations of downstream metabolites” and the “brain levels of pregnenolone” value is “increased brain levels of pregnenolone”. In addition, in series [3] (setting [7]), the plasma allopregnanolone entry is given as “did not increased allopregnanolone” and the plasmatic pregnenolone entry is on record as “increased in the range of the maximum increase observed after the subcutaneous injection”. Also, in series [3] (Alzet minipump at 1 mg/kg/hour), the plasma allopregnanolone entry is given as “allopregnanolone did not increase” and the pregnenolone plasmatic concentrations entry is “at the double of what observed after 6 mg/kg”. For the same compound, the half life result in series [3] (administered subcutaneously) is recorded as “half an hour”. Besides, the half-life result in series [3] (mouse, in vivo) is given as “approximately 30 min”. The plasma allopregnanolone result in series [3] (pregnenolone subcutaneously at 6 mg/kg) is “induced an increase in allopregnanolone”. In addition, the “duration of the increase in pregnenolone levels” value in series [3] (subcutaneous injection) is under 1 h. The “plasmatic levels of pregnenolone” value in series [3] (subcutaneously at 6 mg/kg) is on record as “around 100 ng/ml”. In the series on AMPA receptors, the “AMPAR-mediated mEPSC amplitude” value turned out to be 15.7±0.7 pA and the “AMPAR-mediated mEPSC decay time” value is 4.62 ± 0.06 ms. The “inhibition of fEPSP by THC” value at CB1 receptor [4] (THC 10 μM) came out at 11.1±3.2%. Also, the “inhibition of fEPSP by THC” value against CB1 receptor [4] (THC 20 μM) amounted to 22.7±2.7%. For the same compound, on CB1 receptor [4] (THC 40 μM), the “inhibition of fEPSP by THC” value was found to be 34.6±3.1%. The “effect on motivation (break-point, progressive ratio schedule)” value at CB1 receptor [5] (pregnenolone 2 or 4 mg/kg) is listed as “decreased the motivation to self-administer WIN55,212”. For the same compound, the “effect on self-administration of WIN55,212” value at CB1 receptor [5] (pregnenolone 2 or 4 mg/kg before the session, WIN 12.5 μg/kg per injection) is reported as “profoundly reduced the self-administration of WIN55,212”.
